Assay results reported in ChEMBL document CHEMBL4004803, “Syntheses and antibacterial activity of soluble 9-bromo substituted indolizinoquinoline-5,12-dione derivatives” (Eur J Med Chem, 2017).
In brackets after ≈: the same amount, converted by molar mass.

How the values were obtained:
Staphylococcus aureus [1] = assay: Antibacterial activity against methicillin-resistant Staphylococcus aureus 1029025 clinical isolate after 20 to 24 hrs by two-fold microdilution method; assay type: functional
Staphylococcus aureus [2] = assay: Antibacterial activity against methicillin-resistant Staphylococcus aureus clinical isolate after 20 to 24 hrs by two-fold microdilution method; assay type: functional
Staphylococcus aureus [3] = assay: Antibacterial activity against methicillin-resistant Staphylococcus aureus 1024010 clinical isolate after 20 to 24 hrs by two-fold microdilution method; assay type: functional
Staphylococcus aureus [4] = assay: Antibacterial activity against methicillin-resistant Staphylococcus aureus 10844 clinical isolate after 20 to 24 hrs by two-fold microdilution method; assay type: functional
Staphylococcus aureus [5] = assay: Antibacterial activity against methicillin-resistant Staphylococcus aureus 111423 clinical isolate after 20 to 24 hrs by two-fold microdilution method; assay type: functional
Staphylococcus aureus [6] = assay: Antibacterial activity against methicillin-resistant Staphylococcus aureus 625032 clinical isolate after 20 to 24 hrs by two-fold microdilution method; assay type: functional
Staphylococcus aureus [7] = assay: Antibacterial activity against methicillin-resistant Staphylococcus aureus 814039 clinical isolate after 20 to 24 hrs by two-fold microdilution method; assay type: functional
Staphylococcus aureus [8] = assay: Antibacterial activity against methicillin-resistant Staphylococcus aureus 103054 clinical isolate after 20 to 24 hrs by two-fold microdilution method; assay type: functional
Staphylococcus aureus [9] = assay: Antibacterial activity against methicillin-resistant Staphylococcus aureus 102849 clinical isolate after 20 to 24 hrs by two-fold microdilution method; assay type: functional
Staphylococcus aureus [10] = assay: Antibacterial activity against methicillin-resistant Staphylococcus aureus 912014 clinical isolate after 20 to 24 hrs by two-fold microdilution method; assay type: functional
Staphylococcus aureus [11] = assay: Antibacterial activity against methicillin-resistant Staphylococcus aureus 20339 clinical isolate after 20 to 24 hrs by two-fold microdilution method; assay type: functional
Staphylococcus aureus [12] = assay: Antibacterial activity against methicillin-resistant Staphylococcus aureus 519028 clinical isolate after 20 to 24 hrs by two-fold microdilution method; assay type: functional
Staphylococcus aureus [13] = assay: Antibacterial activity against methicillin-resistant Staphylococcus aureus 110328-1 clinical isolate after 20 to 24 hrs by two-fold microdilution method; assay type: functional
Staphylococcus aureus [14] = assay: Antibacterial activity against methicillin-resistant Staphylococcus aureus 110834 clinical isolate after 20 to 24 hrs by two-fold microdilution method; assay type: functional
Staphylococcus aureus [15] = assay: Antibacterial activity against methicillin-resistant Staphylococcus aureus 305026 clinical isolate after 20 to 24 hrs by two-fold microdilution method; assay type: functional
Staphylococcus aureus [16] = assay: Antibacterial activity against methicillin-resistant Staphylococcus aureus 202045 clinical isolate after 20 to 24 hrs by two-fold microdilution method; assay type: functional
Staphylococcus aureus [17] = assay: Antibacterial activity against methicillin-resistant Staphylococcus aureus 121969 clinical isolate after 20 to 24 hrs by two-fold microdilution method; assay type: functional
Staphylococcus aureus [18] = assay: Antibacterial activity against methicillin-resistant Staphylococcus aureus 110432 clinical isolate after 20 to 24 hrs by two-fold microdilution method; assay type: functional
Staphylococcus aureus [19] = assay: Antibacterial activity against methicillin-resistant Staphylococcus aureus 1216052 clinical isolate after 20 to 24 hrs by two-fold microdilution method; assay type: functional
Staphylococcus aureus [20] = assay: Antibacterial activity against methicillin-resistant Staphylococcus aureus 1212221 clinical isolate after 20 to 24 hrs by two-fold microdilution method; assay type: functional
Staphylococcus aureus [21] = assay: Antibacterial activity against methicillin-resistant Staphylococcus aureus 1214023 clinical isolate after 20 to 24 hrs by two-fold microdilution method; assay type: functional
Staphylococcus aureus [22] = assay: Antibacterial activity against methicillin-resistant Staphylococcus aureus 316038 clinical isolate after 20 to 24 hrs by two-fold microdilution method; assay type: functional
Staphylococcus aureus [23] = assay: Antibacterial activity against methicillin-resistant Staphylococcus aureus 214026 clinical isolate after 20 to 24 hrs by two-fold microdilution method; assay type: functional
Staphylococcus aureus [24] = assay: Antibacterial activity against methicillin-resistant Staphylococcus aureus 20534 clinical isolate after 20 to 24 hrs by two-fold microdilution method; assay type: functional
Staphylococcus aureus [25] = assay: Antibacterial activity against methicillin-resistant Staphylococcus aureus 1025022 clinical isolate after 20 to 24 hrs by two-fold microdilution method; assay type: functional
Staphylococcus aureus [26] = assay: Antibacterial activity against methicillin-resistant Staphylococcus aureus 502025 clinical isolate after 20 to 24 hrs by two-fold microdilution method; assay type: functional
Staphylococcus aureus [27] = assay: Antibacterial activity against methicillin-resistant Staphylococcus aureus 11703 clinical isolate after 20 to 24 hrs by two-fold microdilution method; assay type: functional
Staphylococcus aureus [28] = assay: Antibacterial activity against methicillin-resistant Staphylococcus aureus 109016 clinical isolate after 20 to 24 hrs by two-fold microdilution method; assay type: functional
Staphylococcus aureus [29] = assay: Antibacterial activity against methicillin-resistant Staphylococcus aureus 224001 clinical isolate after 20 to 24 hrs by two-fold microdilution method; assay type: functional
Staphylococcus aureus [30] = assay: Antibacterial activity against methicillin-resistant Staphylococcus aureus 110325 clinical isolate after 20 to 24 hrs by two-fold microdilution method; assay type: functional
Staphylococcus aureus [31] = assay: Antibacterial activity against methicillin-resistant Staphylococcus aureus 123152 clinical isolate after 20 to 24 hrs by two-fold microdilution method; assay type: functional
Staphylococcus aureus [32] = assay: Antibacterial activity against methicillin-resistant Staphylococcus aureus GLH15 clinical isolate after 20 to 24 hrs by two-fold microdilution method; assay type: functional
Staphylococcus aureus [33] = assay: Antibacterial activity against methicillin-resistant Staphylococcus aureus 1212057-1 clinical isolate after 20 to 24 hrs by two-fold microdilution method; assay type: functional
Staphylococcus aureus [34] = assay: Antibacterial activity against methicillin-resistant Staphylococcus aureus 503025 clinical isolate after 20 to 24 hrs by two-fold microdilution method; assay type: functional
Streptococcus pyogenes = assay: Antibacterial activity against Streptococcus pyogenes ATCC 19615 after 20 to 24 hrs by two-fold microdilution method; assay type: functional
[35] = Solubility of the compound in water at 25 degC measured after shaking for 4 hrs by UV method; assay type: physicochemical; conditions: buffer, 4 h
Staphylococcus aureus [36] = assay: Antibacterial activity against methicillin-resistant Staphylococcus aureus 518036 clinical isolate after 20 to 24 hrs by two-fold microdilution method; assay type: functional
Staphylococcus aureus [37] = assay: Antibacterial activity against methicillin-resistant Staphylococcus aureus 19950 clinical isolate after 20 to 24 hrs by two-fold microdilution method; assay type: functional
Staphylococcus aureus [38] = assay: Antibacterial activity against methicillin-resistant Staphylococcus aureus 1207026 clinical isolate after 20 to 24 hrs by two-fold microdilution method; assay type: functional
Staphylococcus aureus [39] = assay: Antibacterial activity against methicillin-resistant Staphylococcus aureus 1024004-2 clinical isolate after 20 to 24 hrs by two-fold microdilution method; assay type: functional
Staphylococcus aureus [40] = assay: Antibacterial activity against methicillin-resistant Staphylococcus aureus 111625 clinical isolate after 20 to 24 hrs by two-fold microdilution method; assay type: functional
Staphylococcus aureus [41] = assay: Antibacterial activity against methicillin-resistant Staphylococcus aureus 1111047-1 clinical isolate after 20 to 24 hrs by two-fold microdilution method; assay type: functional
Staphylococcus aureus [42] = assay: Antibacterial activity against methicillin-resistant Staphylococcus aureus 504008 clinical isolate after 20 to 24 hrs by two-fold microdilution method; assay type: functional
Staphylococcus aureus [43] = assay: Antibacterial activity against methicillin-resistant Staphylococcus aureus 530231 clinical isolate after 20 to 24 hrs by two-fold microdilution method; assay type: functional
Staphylococcus aureus [44] = assay: Antibacterial activity against methicillin-resistant Staphylococcus aureus 131215 clinical isolate after 20 to 24 hrs by two-fold microdilution method; assay type: functional
Staphylococcus aureus [45] = assay: Antibacterial activity against […] Staphylococcus aureus ATCC 25923 after 20 to 24 hrs by two-fold microdilution method; assay type: functional
Staphylococcus aureus [46] = assay: Antibacterial activity against methicillin-resistant Staphylococcus aureus 1026211 clinical isolate after 20 to 24 hrs by two-fold microdilution method; assay type: functional

CN(C)CCCCCOC(=O)c1c2c(n3cc(Br)ccc13)C(=O)c1ncccc1C2=O
MIC (Staphylococcus aureus [1]): 0.25 µg/mL (≈ 0.516 µM)
MIC50 (Staphylococcus aureus [2]): 0.25 µg/mL (≈ 0.516 µM)
MIC90 (Staphylococcus aureus [2]): 0.5 µg/mL (≈ 1.03 µM)
MIC (Staphylococcus aureus [3]): 0.25 µg/mL (≈ 0.516 µM)
MIC (Staphylococcus aureus [4]): 0.25 µg/mL (≈ 0.516 µM)
MIC (Staphylococcus aureus [5]): 2 µg/mL (≈ 4.13 µM)
MIC (Staphylococcus aureus [6]): 0.125 µg/mL (≈ 0.258 µM)
MIC (Staphylococcus aureus [7]): 0.5 µg/mL (≈ 1.03 µM)
MIC (Staphylococcus aureus [8]): 0.5 µg/mL (≈ 1.03 µM)
MIC (Staphylococcus aureus [9]): 0.25 µg/mL (≈ 0.516 µM)
MIC (Staphylococcus aureus [10]): 0.5 µg/mL (≈ 1.03 µM)
MIC (Staphylococcus aureus [11]): 0.5 µg/mL (≈ 1.03 µM)
MIC (Staphylococcus aureus [12]): 0.125 µg/mL (≈ 0.258 µM)
MIC (Staphylococcus aureus [13]): 0.063 µg/mL (≈ 0.13 µM)
MIC (Staphylococcus aureus [14]): 0.5 µg/mL (≈ 1.03 µM)
MIC (Staphylococcus aureus [15]): 0.125 µg/mL (≈ 0.258 µM)
MIC (Staphylococcus aureus [16]): 0.5 µg/mL (≈ 1.03 µM)
MIC (Staphylococcus aureus [17]): 0.25 µg/mL (≈ 0.516 µM)
MIC (Staphylococcus aureus [18]): 0.5 µg/mL (≈ 1.03 µM)
MIC (Staphylococcus aureus [19]): 4 µg/mL (≈ 8.26 µM)
MIC (Staphylococcus aureus [20]): 0.125 µg/mL (≈ 0.258 µM)
MIC (Staphylococcus aureus [21]): ≤ 0.0078 µg/mL
MIC (Staphylococcus aureus [22]): 0.25 µg/mL (≈ 0.516 µM)
MIC (Staphylococcus aureus [23]): 0.125 µg/mL (≈ 0.258 µM)
MIC (Staphylococcus aureus [24]): 0.5 µg/mL (≈ 1.03 µM)
MIC (Staphylococcus aureus [25]): 0.5 µg/mL (≈ 1.03 µM)
MIC (Staphylococcus aureus [26]): 0.5 µg/mL (≈ 1.03 µM)
MIC (Staphylococcus aureus [27]): 0.5 µg/mL (≈ 1.03 µM)
MIC (Staphylococcus aureus [28]): 0.25 µg/mL (≈ 0.516 µM)
MIC (Staphylococcus aureus [29]): 0.5 µg/mL (≈ 1.03 µM)
MIC (Staphylococcus aureus [30]): 0.125 µg/mL (≈ 0.258 µM)
MIC (Staphylococcus aureus [31]): 0.25 µg/mL (≈ 0.516 µM)
MIC (Staphylococcus aureus [32]): 0.25 µg/mL (≈ 0.516 µM)
MIC (Staphylococcus aureus [33]): 0.125 µg/mL (≈ 0.258 µM)
MIC (Staphylococcus aureus [34]): 0.5 µg/mL (≈ 1.03 µM)
MIC (Streptococcus pyogenes): 2 µg/mL (≈ 4.13 µM)
solubility [35]: Insoluble
MIC (Staphylococcus aureus [36]): 0.25 µg/mL (≈ 0.516 µM)
MIC (Staphylococcus aureus [37]): 0.5 µg/mL (≈ 1.03 µM)
MIC (Staphylococcus aureus [38]): 0.125 µg/mL (≈ 0.258 µM)
MIC (Staphylococcus aureus [39]): 0.5 µg/mL (≈ 1.03 µM)
MIC (Staphylococcus aureus [40]): 0.25 µg/mL (≈ 0.516 µM)
MIC (Staphylococcus aureus [41]): 0.5 µg/mL (≈ 1.03 µM)
MIC (Staphylococcus aureus [42]): 0.5 µg/mL (≈ 1.03 µM)
MIC (Staphylococcus aureus [43]): 0.25 µg/mL (≈ 0.516 µM)
MIC (Staphylococcus aureus [44]): 0.25 µg/mL (≈ 0.516 µM)
MIC (Staphylococcus aureus [45]): ≤ 0.0078 µg/mL
MIC (Staphylococcus aureus [46]): 0.063 µg/mL (≈ 0.13 µM)
